# In ChEMBL document CHEMBL3885861, “Open TG-GATES”:
# Species on record: Rattus norvegicus
# Experiment: Open TG-GATES - Regimen: Single
# Assay type: toxicity, organism-based, Sprague-Dawley
# Parameters: regimen Single, gender Male, age 6 weeks
# Details: in vivo, po, 15 mg/kg, route gavage, dose level Low; for APTT / Bas / Eos / Fbg / Hb / Ht / Lym / MCH / MCHC / MCV / Mono / Neu / PT / Plat / RBC / Ret / WBC: tissue Blood; for KIDNEY_L / KIDNEY_R / KIDNEY_TOTAL: tissue Kidney; for LIVER: tissue Liver; for A/G / ALP / ALT / AST / BUN / CRE / Ca / Cl / DBIL / GLC / IP / K / LDH / Na / PL / RALB / TBIL / TC / TG / TP / gamma-GTP: tissue Plasma
structure (smiles),measurement,setting,value
S=C=Nc1cccc2ccccc12 [1-NAPHTHYLISOTHIOCYANATE],TERMINAL_BW,3 h,226 g
same,APTT,3 h,18.2 s
same,Bas,3 h,0.2%
same,Eos,3 h,0.8%
same,Fbg,3 h,233 mg/dL
same,Hb,3 h,13.7 g/dL
same,Ht,3 h,38.1%
same,Lym,3 h,75.2%
same,MCH,3 h,22 pg
same,MCHC,3 h,35.8%
same,MCV,3 h,61.5 fL
same,Mono,3 h,3%
same,Neu,3 h,20%
same,PT,3 h,11.7 s
same,Plat,3 h,119.1 x10_4/uL
same,RBC,3 h,622.2 x10_4/ul
same,Ret,3 h,8.4%
same,WBC,3 h,91.8 x10_2/uL
same,KIDNEY_L,3 h,1 g
same,KIDNEY_R,3 h,1 g
same,KIDNEY_TOTAL,3 h,2 g
same,LIVER,3 h,10.2 g
same,A/G,3 h,1.6
same,ALP,3 h,1037.2 IU/L
same,ALT,3 h,42.2 IU/L
same,AST,3 h,75 IU/L
same,BUN,3 h,10.6 mg/dL
same,CRE,3 h,0.4 mg/dL
same,Ca,3 h,10.8 mg/dL
same,Cl,3 h,103.8 meq/L
same,DBIL,3 h,0.1 mg/dL
same,GLC,3 h,220.4 mg/dL
same,IP,3 h,10 mg/dL
same,K,3 h,4.1 meq/L
same,LDH,3 h,199.8 IU/L
same,Na,3 h,142 meq/L
same,PL,3 h,159.4 mg/dL
same,RALB,3 h,3.4 g/dL
same,TBIL,3 h,0.1 mg/dL
same,TC,3 h,75.2 mg/dL
same,TG,3 h,135.2 mg/dL
same,TP,3 h,5.6 g/dL
same,gamma-GTP,3 h,0.8 IU/L
same,TERMINAL_BW,6 h,220 g
same,APTT,6 h,18.5 s
same,Bas,6 h,0%
same,Eos,6 h,0.8%
same,Fbg,6 h,243.4 mg/dL
same,Hb,6 h,13.8 g/dL
same,Ht,6 h,38.6%
same,Lym,6 h,75.2%
same,MCH,6 h,21.8 pg
same,MCHC,6 h,35.7%
same,MCV,6 h,60.9 fL
same,Mono,6 h,3.2%
same,Neu,6 h,19.8%
same,PT,6 h,11.8 s
same,Plat,6 h,120.7 x10_4/uL
same,RBC,6 h,634.6 x10_4/ul
same,Ret,6 h,7%
same,WBC,6 h,100.7 x10_2/uL
same,KIDNEY_L,6 h,1 g
same,KIDNEY_R,6 h,1 g
same,KIDNEY_TOTAL,6 h,1.9 g
same,LIVER,6 h,9.6 g
same,A/G,6 h,1.7
same,ALP,6 h,1074.4 IU/L
same,ALT,6 h,32.4 IU/L
same,AST,6 h,68.2 IU/L
same,BUN,6 h,8 mg/dL
same,CRE,6 h,0.4 mg/dL
same,Ca,6 h,10.5 mg/dL
same,Cl,6 h,103.8 meq/L
same,DBIL,6 h,0.1 mg/dL
same,GLC,6 h,235.8 mg/dL
same,IP,6 h,10 mg/dL
same,K,6 h,4.1 meq/L
same,LDH,6 h,196 IU/L
same,Na,6 h,141.6 meq/L
same,PL,6 h,140.2 mg/dL
same,RALB,6 h,3.5 g/dL
same,TBIL,6 h,0.1 mg/dL
same,TC,6 h,77 mg/dL
same,TG,6 h,61 mg/dL
same,TP,6 h,5.6 g/dL
same,gamma-GTP,6 h,1.2 IU/L
same,TERMINAL_BW,9 h,215.5 g
same,APTT,9 h,18 s
same,Bas,9 h,0.2%
same,Eos,9 h,0.8%
same,Fbg,9 h,237 mg/dL
same,Hb,9 h,13.6 g/dL
same,Ht,9 h,38.1%
same,Lym,9 h,74.8%
same,MCH,9 h,21.5 pg
same,MCHC,9 h,35.6%
same,MCV,9 h,60.5 fL
same,Mono,9 h,2.4%
same,Neu,9 h,20.8%
same,PT,9 h,12.1 s
same,Plat,9 h,122.9 x10_4/uL
same,RBC,9 h,631.6 x10_4/ul
same,Ret,9 h,7.1%
same,WBC,9 h,92.1 x10_2/uL
same,KIDNEY_L,9 h,1 g
same,KIDNEY_R,9 h,0.9 g
same,KIDNEY_TOTAL,9 h,1.9 g
same,LIVER,9 h,8.7 g
same,A/G,9 h,1.7
same,ALP,9 h,1018.2 IU/L
same,ALT,9 h,35.8 IU/L
same,AST,9 h,72 IU/L
same,BUN,9 h,10.4 mg/dL
same,CRE,9 h,0.4 mg/dL
same,Ca,9 h,10.4 mg/dL
same,Cl,9 h,104 meq/L
same,DBIL,9 h,0.092 mg/dL
same,GLC,9 h,223 mg/dL
same,IP,9 h,10.1 mg/dL
same,K,9 h,3.8 meq/L
same,LDH,9 h,157.4 IU/L
same,Na,9 h,142.2 meq/L
same,PL,9 h,134.2 mg/dL
same,RALB,9 h,3.6 g/dL
same,TBIL,9 h,0.1 mg/dL
same,TC,9 h,73.2 mg/dL
same,TG,9 h,34.8 mg/dL
same,TP,9 h,5.7 g/dL
same,gamma-GTP,9 h,1 IU/L
same,TERMINAL_BW,24 h,232.5 g
same,APTT,24 h,17.6 s
same,Bas,24 h,0.4%
same,Eos,24 h,0.8%
same,Fbg,24 h,217.8 mg/dL
same,Hb,24 h,13.9 g/dL
same,Ht,24 h,38.5%
same,Lym,24 h,80%
same,MCH,24 h,21.9 pg
same,MCHC,24 h,36%
same,MCV,24 h,60.8 fL
same,Mono,24 h,2%
same,Neu,24 h,16%
same,PT,24 h,11.9 s
same,Plat,24 h,122.9 x10_4/uL
same,RBC,24 h,633.6 x10_4/ul
same,Ret,24 h,6.5%
same,WBC,24 h,106 x10_2/uL
same,KIDNEY_L,24 h,1 g
same,KIDNEY_R,24 h,1 g
same,KIDNEY_TOTAL,24 h,2 g
same,LIVER,24 h,10.3 g
same,A/G,24 h,1.6
same,ALP,24 h,1064.4 IU/L
same,ALT,24 h,39.8 IU/L
same,AST,24 h,73.6 IU/L
same,BUN,24 h,15.6 mg/dL
same,CRE,24 h,0.4 mg/dL
same,Ca,24 h,10.6 mg/dL
same,Cl,24 h,103.8 meq/L
same,DBIL,24 h,0.068 mg/dL
same,GLC,24 h,198 mg/dL
same,IP,24 h,7.3 mg/dL
same,K,24 h,3.8 meq/L
same,LDH,24 h,209.4 IU/L
same,Na,24 h,141.6 meq/L
same,PL,24 h,131 mg/dL
same,RALB,24 h,3.4 g/dL
same,TBIL,24 h,0.1 mg/dL
same,TC,24 h,67.4 mg/dL
same,TG,24 h,84.2 mg/dL
same,TP,24 h,5.5 g/dL
same,gamma-GTP,24 h,1.6 IU/L
